Five compounds from patent EP1976513B1 (priority 2006, dated 2007) can be followed below.

In general, IC50 refers to the concentration needed to halve the response being measured.

“And” between values parts separate entries of the source, which are not always exact repeats. Identical values can stand only once. Like-named read-outs stand apart in the source and are kept apart here.

Experiment [1] has as its target T1, DA Transporter (DAT) Sites in Mouse Brain (Mus musculus, UniProt Q61327).
T1 construct: Striatum was used to determine occupancy of DA transporter sites; from tissue; host or cells: C57BL/6 mouse striatum homogenate
The experiment is described as follows: Ex vivo [3H] WIN 35428 binding after oral dosing. Also noted: species or system C57BL/6 mice. The following applies: for Mean Specific Binding (dpm) ± S.E.M., DAT: mice sacrificed 60 minutes after treatment, striatum; for % Transporter Occupancy, DAT: 60 minutes after treatment, vs vehicle.

The test system of experiment [2] is Rats. Put plainly: Rat locomotor activity. It counts as in vivo. The following applies: PO. How it is done:
(§1) In order to ensure effects of the compounds on immobility time were not related to a general stimulant effect on baseline motor activity, locomotor activity was assessed using photocell monitored cages (Med-Associates Inc.). Each test chamber was equipped with infrared photocell beams to measure movement of the animals. Horizontal and vertical activity were measured
(§2) Rats or mice were pretreated with vehicle or test compounds and placed back in home cage, following which they will be individually placed in locomotor cages and activity was monitored in 5 minute intervals for up to 60 min.
(§3) Data were analyzed by one way analysis of variance (ANOVA) followed by post-hoc comparisons where appropriate. An effect was considered significant if p < 0.05. Data are represented as the mean and standard error to the mean (s.e.m).

The target in experiment [3] is Norepinephrine Transporter (NET) Sites in Mouse Brain (Mus musculus, UniProt O55192). The following applies: PO; for Mean Specific Binding (dpm) ± S.E.M., NET: mice sacrificed 60 minutes after treatment, cortex; for % Transporter Occupancy, NET: 60 minutes after treatment, vs vehicle.
Sequence of Norepinephrine Transporter (NET) Sites in Mouse Brain (O55192 whole entry): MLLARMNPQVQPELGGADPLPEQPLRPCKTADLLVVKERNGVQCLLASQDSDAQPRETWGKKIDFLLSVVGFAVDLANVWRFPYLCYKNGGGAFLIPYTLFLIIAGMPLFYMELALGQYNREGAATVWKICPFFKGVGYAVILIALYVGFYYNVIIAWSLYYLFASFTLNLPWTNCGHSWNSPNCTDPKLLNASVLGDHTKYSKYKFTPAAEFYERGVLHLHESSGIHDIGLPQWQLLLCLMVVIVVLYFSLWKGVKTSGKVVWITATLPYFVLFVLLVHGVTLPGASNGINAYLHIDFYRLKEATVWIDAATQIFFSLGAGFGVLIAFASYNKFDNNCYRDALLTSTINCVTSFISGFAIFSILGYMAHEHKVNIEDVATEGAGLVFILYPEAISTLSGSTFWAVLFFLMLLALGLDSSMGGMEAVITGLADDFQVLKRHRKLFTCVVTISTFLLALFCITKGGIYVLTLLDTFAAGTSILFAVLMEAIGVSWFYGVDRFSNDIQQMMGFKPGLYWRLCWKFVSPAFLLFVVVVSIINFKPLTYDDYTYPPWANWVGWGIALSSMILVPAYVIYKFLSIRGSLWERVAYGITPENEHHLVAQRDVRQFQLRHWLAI
Experiment [4] deals with mice. Put plainly: Mouse locomotor activity. The format is in vivo. As to conditions: PO. How it is done:
as §1, §2, §3

Experiment [5] relates to Rats. Put plainly: Rat forced swim test. The format is in vivo. The following applies: PO, 24 hours and 30-60 minutes before the 5 minute test.
For experiment [6], the system named is mice. Put plainly: Mouse tail suspension test. The format is in vivo. As to conditions: PO, 30-60 minutes before the test, 5 minutes recording.
In the next experiment the target is T2, dopamine transporter (Rattus norvegicus, UniProt P23977).
T2 construct: synaptosomes isolated in a 0.32 M sucrose buffer from a male Wistar rat striatum; from tissue; host or cells: male Wistar rat striatum synaptosomes
T2 sequence (P23977 whole entry): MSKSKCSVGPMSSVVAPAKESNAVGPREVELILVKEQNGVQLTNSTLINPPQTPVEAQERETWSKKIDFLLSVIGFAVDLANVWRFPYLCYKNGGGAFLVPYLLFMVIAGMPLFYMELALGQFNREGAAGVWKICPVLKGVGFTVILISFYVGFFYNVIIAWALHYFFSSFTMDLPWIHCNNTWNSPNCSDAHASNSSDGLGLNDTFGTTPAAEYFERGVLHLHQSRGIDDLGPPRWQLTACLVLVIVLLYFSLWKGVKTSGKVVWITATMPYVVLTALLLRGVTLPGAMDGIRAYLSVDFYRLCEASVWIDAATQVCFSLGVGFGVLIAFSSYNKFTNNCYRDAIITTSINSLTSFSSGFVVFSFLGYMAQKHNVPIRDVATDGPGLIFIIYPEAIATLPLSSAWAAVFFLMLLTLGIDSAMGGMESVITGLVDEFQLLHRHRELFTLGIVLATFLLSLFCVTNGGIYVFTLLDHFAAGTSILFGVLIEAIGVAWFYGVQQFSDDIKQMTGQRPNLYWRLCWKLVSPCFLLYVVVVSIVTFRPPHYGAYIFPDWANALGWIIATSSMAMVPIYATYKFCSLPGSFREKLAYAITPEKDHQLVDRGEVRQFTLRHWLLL
The experiment is described as follows: biochemical. As to conditions: Rat IC50 (nM) rDAT, rat synaptosomes, dopamine transporter (DAT).

Experiment [7] concerns the target T3, 5-HT Transporter (SERT) Sites in Mouse Brain (Mus musculus, UniProt Q60857).
T3 construct: Whole brains were removed and cortex and striata dissected out; from tissue; host or cells: C57BL/6 mouse frontal cortex homogenate
Put plainly: Ex vivo [3H] citalopram binding after oral dosing. The following applies: for % Transporter Occupancy, SERT: 60 minutes after treatment, vs vehicle; for Mean Specific Binding (dpm) ± S.E.M., SERT: mice sacrificed 60 minutes after treatment, cortex. Also noted: species or system C57BL/6 mice.

Experiment [8] has as its target human serotonin reuptake transporter (Homo sapiens, UniProt P31645). The experiment is described as follows: cell-based. As to conditions: recombinant human serotonin transporter (SERT); read-out: Human IC50 (nM) hSERT.
Experiment [9] addresses T4, human dopamine reuptake transporter (Homo sapiens, UniProt Q01959).
T4 construct: expressed in transfected cells; host or cells: CHO-K1 or HEK293
Put plainly: cell-based. As to conditions: recombinant human dopamine transporter (DAT); read-out: Human IC50 (nM) hDAT.

T3 sequence (Q60857 whole entry): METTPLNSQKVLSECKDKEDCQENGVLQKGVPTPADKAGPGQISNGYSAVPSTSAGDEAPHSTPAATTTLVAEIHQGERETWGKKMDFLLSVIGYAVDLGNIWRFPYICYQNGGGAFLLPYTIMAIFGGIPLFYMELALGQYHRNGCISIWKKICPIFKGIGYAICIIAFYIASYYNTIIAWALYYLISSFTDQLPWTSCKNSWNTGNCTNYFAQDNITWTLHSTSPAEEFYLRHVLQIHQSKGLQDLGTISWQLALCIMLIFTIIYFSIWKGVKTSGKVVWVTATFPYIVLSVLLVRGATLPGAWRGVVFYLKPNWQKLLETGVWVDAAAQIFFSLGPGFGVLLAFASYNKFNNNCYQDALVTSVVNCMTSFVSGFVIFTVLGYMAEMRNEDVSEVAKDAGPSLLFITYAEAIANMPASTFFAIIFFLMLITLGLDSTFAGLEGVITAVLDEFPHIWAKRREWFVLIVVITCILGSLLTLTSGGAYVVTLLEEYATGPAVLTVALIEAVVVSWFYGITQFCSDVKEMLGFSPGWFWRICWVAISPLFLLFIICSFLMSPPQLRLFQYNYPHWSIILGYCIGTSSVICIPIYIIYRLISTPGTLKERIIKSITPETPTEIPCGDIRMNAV
T1 sequence (Q61327 whole entry): as the sequence (P23977 whole entry) above, with S21P, A57V, A194S, H600R, L619V counted along it
Sequence of human serotonin reuptake transporter (P31645 whole entry): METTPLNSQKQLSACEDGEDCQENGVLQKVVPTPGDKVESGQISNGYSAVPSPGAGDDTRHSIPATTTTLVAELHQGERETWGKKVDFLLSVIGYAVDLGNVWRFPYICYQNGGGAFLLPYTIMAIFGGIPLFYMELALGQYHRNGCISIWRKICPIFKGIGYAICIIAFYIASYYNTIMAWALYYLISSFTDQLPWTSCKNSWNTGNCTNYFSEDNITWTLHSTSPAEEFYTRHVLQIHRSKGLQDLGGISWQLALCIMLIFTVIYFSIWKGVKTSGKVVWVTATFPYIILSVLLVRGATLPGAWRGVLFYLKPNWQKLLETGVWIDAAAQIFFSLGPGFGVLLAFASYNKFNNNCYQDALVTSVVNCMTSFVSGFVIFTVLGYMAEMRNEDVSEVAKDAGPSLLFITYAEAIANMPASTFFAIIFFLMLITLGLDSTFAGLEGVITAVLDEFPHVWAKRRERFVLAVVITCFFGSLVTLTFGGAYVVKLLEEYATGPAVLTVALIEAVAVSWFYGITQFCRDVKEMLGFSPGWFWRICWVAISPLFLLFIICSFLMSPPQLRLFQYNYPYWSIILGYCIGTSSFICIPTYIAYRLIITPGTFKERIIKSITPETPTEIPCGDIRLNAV
T4 sequence (Q01959 whole entry): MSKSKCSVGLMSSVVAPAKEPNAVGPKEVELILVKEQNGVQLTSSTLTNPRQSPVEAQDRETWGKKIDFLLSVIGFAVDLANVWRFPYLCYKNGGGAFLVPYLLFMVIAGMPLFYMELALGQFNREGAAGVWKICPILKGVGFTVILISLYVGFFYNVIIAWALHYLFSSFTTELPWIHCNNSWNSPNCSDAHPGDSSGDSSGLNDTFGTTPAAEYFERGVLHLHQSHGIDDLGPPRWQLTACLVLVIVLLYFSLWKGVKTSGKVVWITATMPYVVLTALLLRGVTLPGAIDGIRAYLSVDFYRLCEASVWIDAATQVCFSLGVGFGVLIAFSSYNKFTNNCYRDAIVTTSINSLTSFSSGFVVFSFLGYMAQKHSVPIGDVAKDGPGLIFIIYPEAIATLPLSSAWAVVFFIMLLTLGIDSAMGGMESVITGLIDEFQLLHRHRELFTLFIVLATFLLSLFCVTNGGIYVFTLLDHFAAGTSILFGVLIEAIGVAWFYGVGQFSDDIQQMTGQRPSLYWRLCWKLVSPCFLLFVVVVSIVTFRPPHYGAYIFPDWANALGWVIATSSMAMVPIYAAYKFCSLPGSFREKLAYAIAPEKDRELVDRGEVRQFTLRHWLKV

For the compound `CNC(C)C1(c2ccc(Cl)c(Cl)c2)CCCCC1.Cl` (single isomer, unassigned) [48 E1, 1-(1-(3,4-dichlorophenyl)cyclohexyl)-N-methylethanamine hydrochloride], the “Mean Specific Binding (dpm) ± S.E.M., DAT” value in experiment [1] (1 mg/kg) was determined as 20656 ± 1531 dpm; in experiment [1] (3 mg/kg), 18039 ± 1265 dpm; in [1] (10 mg/kg), 9792 ± 977 dpm; in experiment [1] (30 mg/kg) it was 3173 ± 541 dpm. The “Rat Locomotor Activity Total Distance Traveled ± S.E.M.” value with Rats [2] (3 mg/kg) was determined as 1869.9 ± 188.4; with Rats [2] (10 mg/kg), 1825.3 ± 109.3; in the experiment on Rats [2] (30 mg/kg), 1840.6 ± 56.6. In addition, the “Mean Specific Binding (dpm) ± S.E.M., NET” value came to 2111 ± 119 dpm in experiment [3] (1 mg/kg), 1911 ± 144 dpm in [3] (3 mg/kg), 954 ± 115 dpm in experiment [3] (10 mg/kg) and 346 ± 55 dpm in experiment [3] (30 mg/kg). Further, the “Mouse Locomotor Activity Total Distance Traveled ± S.E.M.” value in the experiment with mice [4] (3 mg/kg) came out at 622.5 ± 101.6; in the experiment with mice [4] (10 mg/kg) it was 620.0 ± 79.4; in the experiment on mice [4] (30 mg/kg) it was 468.6 ± 114.2. Also, the “Rat Forced Swim (Means ± S.E.M.) Climbing” value with Rats [5] (3 mg/kg) amounted to 7.1 ± 0.6; in the experiment with Rats [5] (10 mg/kg), 17.9 ± 2.5; in the experiment with Rats [5] (30 mg/kg) it was 20.6 ± 2.9. In addition, the “Rat Forced Swim (Means ± S.E.M.) Immobility” value in the experiment with Rats [5] (3 mg/kg) stood at 49.6 ± 1.5; in the experiment on Rats [5] (10 mg/kg) it was 35.6 ± 3.5; in the experiment with Rats [5] (30 mg/kg) it was 26.9 ± 4.4. Moreover, the results for the “Rat Forced Swim (Means ± S.E.M.) Swimming” value in the experiment with Rats [5] (3 mg/kg), with Rats [5] (10 mg/kg) and in the experiment with Rats [5] (30 mg/kg) were 3.7 ± 1.0, 6.5 ± 1.6 and 9.7 ± 1.7, respectively. Moreover, the “Mouse Tail Suspension Mean Immobility Time ± S.E.M.” value with mice [6] (3 mg/kg) is recorded as 189.8 ± 7.2; with mice [6] (10 mg/kg) it was 174.1 ± 5.8; with mice [6] (30 mg/kg) it was 134.5 ± 9.6.
In the case of `CNCC1(c2ccc(Cl)c(Cl)c2)CCCCC1.Cl` [Compound 75, 1-(1-(3,4-dichlorophenyl)cyclohexyl)-N-methylmethanamine (hydrochloride)], the IC50 against dopamine transporter is 58 nM. For the same compound, the “Mouse Locomotor Activity Total Distance Traveled ± S.E.M.” value in the experiment on mice [4] (3 mg/kg) was determined as 653.5 ± 48.4; in the experiment with mice [4] (10 mg/kg), 608.8 ± 83.4; in the experiment with mice [4] (30 mg/kg), 655.3 ± 117.7. Moreover, the “Mouse Tail Suspension Mean Immobility Time ± S.E.M.” value in the experiment with mice [6] (3 mg/kg) is listed as 187.8 ± 9.6; in the experiment with mice [6] (10 mg/kg) it was 177.7 ± 5.8; with mice [6] (30 mg/kg), 143.5 ± 5.8.
For `CNCC1(c2ccc3ccccc3c2)CCCCC1` [Compound 93, N-methyl-1-(1-(naphthalen-2-yl)cyclohexyl)methanamine], the “Rat Locomotor Activity Total Distance Traveled ± S.E.M.” value was 1802.6 ± 150.6 with Rats [2] (3 mg/kg), 1641.0 ± 144.5 with Rats [2] (10 mg/kg) and 2095.6 ± 147.2 in the experiment with Rats [2] (30 mg/kg). Moreover, the “Mouse Locomotor Activity Total Distance Traveled ± S.E.M.” value in the experiment on mice [4] (3 mg/kg) stood at 644.0 ± 55.7; with mice [4] (10 mg/kg) it was 606.9 ± 72.4; in the experiment on mice [4] (30 mg/kg), 737.6 ± 89.5. The “Rat Forced Swim (Means ± S.E.M.) Climbing” value in the experiment with Rats [5] (3 mg/kg) came to 9.0 ± 1.3; in the experiment on Rats [5] (10 mg/kg), 12.8 ± 2.2; with Rats [5] (30 mg/kg), 22.2 ± 3.5. Besides, the “Rat Forced Swim (Means ± S.E.M.) Immobility” value in the experiment with Rats [5] (3 mg/kg) came to 44.5 ± 2.5; in the experiment on Rats [5] (10 mg/kg), 41.4 ± 2.8; in the experiment on Rats [5] (30 mg/kg), 25.8 ± 5.4. Moreover, the “Rat Forced Swim (Means ± S.E.M.) Swimming” value in the experiment on Rats [5] (3 mg/kg) was 6.5 ± 1.6; with Rats [5] (10 mg/kg), 6.9 ± 1.3; with Rats [5] (30 mg/kg) it was 12.0 ± 2.1. Moreover, the “Mouse Tail Suspension Mean Immobility Time ± S.E.M.” value with mice [6] (3 mg/kg) amounted to 203.5 ± 8.0; with mice [6] (10 mg/kg) it was 185.4 ± 7.9; in the experiment with mice [6] (30 mg/kg), 162.0 ± 8.1.
As for `CN(C)C[C@]1(c2ccc3ccccc3c2)CC[C@](C)(O)CC1` [Compound 225, 4-((dimethylamino)methyl)-1-methyl-4-(naphthalen-2-yl)cyclohexanol], the “% Transporter Occupancy, SERT” value in experiment [7] (1 mg/kg) worked out at 17%; in experiment [7] (3 mg/kg), 54%; in [7] (10 mg/kg), 81%; in experiment [7] (30 mg/kg), 91%. The “Mean Specific Binding (dpm) ± S.E.M., SERT” value in experiment [7] (1 mg/kg) was found to be 3842 ± 152 dpm; in [7] (3 mg/kg), 2118 ± 139 dpm; in [7] (10 mg/kg) it was 904 ± 35 dpm; in [7] (30 mg/kg), 414 ± 37 dpm. Also, the “% Transporter Occupancy, DAT” value in [1] (1 mg/kg) is 3%; in experiment [1] (3 mg/kg) it was -6%; in experiment [1] (10 mg/kg), 8%; in experiment [1] (30 mg/kg) it was 29%. For the same compound, the “Mean Specific Binding (dpm) ± S.E.M., DAT” value in [1] (1 mg/kg) is 19787 ± 3338 dpm; in experiment [1] (3 mg/kg), 21666 ± 3698 dpm; in [1] (10 mg/kg), 18872 ± 2775 dpm; in experiment [1] (30 mg/kg), 14618 ± 1209 dpm. In experiment [8], the IC50 stood at 7 nM. For the same compound, the “Rat Locomotor Activity Total Distance Traveled ± S.E.M.” value in the experiment on Rats [2] (3 mg/kg) stood at 1783.4 ± 182.7; in the experiment on Rats [2] (10 mg/kg) it was 1628.5 ± 159.2; with Rats [2] (30 mg/kg), 2182.8 ± 151.2. Besides, the “% Transporter Occupancy, NET” value in experiment [3] (1 mg/kg) is recorded as 25%; in experiment [3] (3 mg/kg), 48%; in experiment [3] (10 mg/kg), 75%; in [3] (30 mg/kg), 85%. The “Mean Specific Binding (dpm) ± S.E.M., NET” value in experiment [3] (1 mg/kg) stood at 1170 ± 68 dpm; in experiment [3] (3 mg/kg), 813 ± 64 dpm; in experiment [3] (10 mg/kg), 393 ± 21 dpm; in [3] (30 mg/kg), 230 ± 33 dpm. Moreover, the “Mouse Locomotor Activity Total Distance Traveled ± S.E.M.” value turned out to be 519.5 ± 56.4 in the experiment on mice [4] (0.3 mg/kg), 423.4 ± 62.3 in the experiment with mice [4] (1 mg/kg), 234.2 ± 49.4 with mice [4] (10 mg/kg) and 177.4 ± 47.8 with mice [4] (30 mg/kg). For the same compound, the “Rat Forced Swim (Means ± S.E.M.) Climbing” value in the experiment on Rats [5] (3 mg/kg) is 8.4 ± 1.7; in the experiment on Rats [5] (10 mg/kg), 11.1 ± 2.7; with Rats [5] (30 mg/kg), 25.0 ± 4.6. Moreover, the results for the “Rat Forced Swim (Means ± S.E.M.) Immobility” value in the experiment with Rats [5] (3 mg/kg), in the experiment on Rats [5] (10 mg/kg) and in the experiment on Rats [5] (30 mg/kg) were 50.8 ± 1.8, 47.6 ± 3.0 and 33.4 ± 4.8, respectively. Further, the figures for the “Rat Forced Swim (Means ± S.E.M.) Swimming” value in the experiment with Rats [5] (10 mg/kg) and in the experiment on Rats [5] (30 mg/kg) were 1.2 ± 0.6 and 1.1 ± 0.5, respectively. The “Mouse Tail Suspension Mean Immobility Time ± S.E.M.” value was 188.1 ± 8.0 in the experiment on mice [6] (0.3 mg/kg); 186.5 ± 5.2 in the experiment with mice [6] (1 mg/kg); 158.5 ± 4.9 and 155.2 ± 6.0 in the experiment on mice [6] (3 mg/kg); 137.8 ± 5.2 in the experiment on mice [6] (10 mg/kg); 136.3 ± 2.5 in the experiment with mice [6] (30 mg/kg).
As to `CN(C)CC1(c2ccc(Cl)c(Cl)c2)CCC(F)CC1` (stereo not drawn) [Compound 254, 1-(1-(3,4-dichlorophenyl)-4-fluorocyclohexyl)-N,N-dimethylmethanamine], the IC50 in experiment [8] was 294 nM; in [9] it was less than 1 nM; on dopamine transporter, 100 nM.
